From US10704079B2, “Methods for the detection of beta-lactamases in a sample” (priority 2007, dated 2020) come the findings set out here.

In brackets after ≈: the same amount, converted by molar mass. Like-named read-outs stand apart in the source and are kept apart here.

One assay has as its system E. coli (ESCCOL) strains. The assay can be described thus: MIC assays of CTX, CCX, CAZ, CCZ, microbroth dilution (CLSI). In kind it is cell-based. The note with it: Escherichia coli. How it is done: (§1) MIC Assays of CTX (cefotaxime), […] (cefotaxime/clavulanic acid), CAZ (ceftazidime) and CCZ (ceftazidime/clavulanic acid) were performed by microbroth dilution method according to the CLSI (Clinical and Laboratory Standards Institute) standard.

For assay [1], the system named is Klebsiella pneumoniae (KLEPNEP) strains. The description is as above. In kind it is cell-based. As for the experimental part:
as §1

The subject of assay [2] is E. coli strains. The assay can be described thus: Lysis testing on Phoenix panel, nitrocefin hydrolysis rate. More on the design: unit not given here. Conditions: without vs with lysis reagent. In kind it is cell-based. How it is done:
(§2) Stock solutions with nitrocefin, trehalose, and/or reagents used to lyse the bacterial cells in pH6 MES buffer were prepared and dispensed into wells on the bottom part of Phoenix™ panel (BD, USA), with one stock solution in one well. Panels were then dried in an oven for approximately 30 min at approximately 70° C. The top part of Phoenix panel was then attached to the bottom part forming a panel system ready for inoculation. The concentrations of reagents after rehydration following Phoenix panel inoculation were 3 mg/ml lysozyme, 1 mM EDTA, and 1% trehalose in 0.1M pH6 MES buffer.
(§3) Representative strains of bacteria, such as E. coli and Klebsiella pneumoniae, were each streaked on a Trypticase™ Soy Agar with 5% Sheep Blood agar plate (BD, USA) and the plates were incubated at 35° C. for 18 hours. Afterwards, colonies from pure culture on each plate were inoculated into BD Phoenix ID broth (BD, USA) and adjusted to a desired turbidity of approximately 0.5 MacFarland. The bacterial cell suspension was then poured into the ID side of the Phoenix panels that were specifically made for cell lysis testing. Once inoculated, the panel was loaded into Phoenix instrument, where nitrocefin hydrolysis rate was monitored by colorimetric signals changes every 20 minutes for 16 hours.

For assay [3], the system named is Klebsiella pneumoniae strains. Described as above. In kind it is cell-based. The arrangement: unit not given here. The note with it: without vs with lysis reagent. As for the experimental part:
as §2, §3

In assay [4] the test system is E. coli strains. The assay can be described thus: Cefoxitin MIC assay, microbroth dilution (CLSI). In kind it is cell-based. As for the experimental part: Cefoxitin MIC Assay were performed by microbroth dilution method according to the CLSI (Clinical and Laboratory Standards Institute) standard.
The next assay relates to ESBLs. The assay can be described thus: Beta-lactamase inhibition at certain concentrations. In kind it is biochemical.
Assay [5] concerns original-spectrum beta-lactamases (OSBLs). Described as above. In kind it is biochemical.
The test system of the next assay is class A beta-lactamases. The assay is described as above. In kind it is biochemical.
Another assay has as its system class C beta-lactamases. The description is as above. In kind it is biochemical.
[6] abbreviates: ESCCOL strain 2 of Table 20 (ESBL), read-out: MIC.
Setting [7] is: ESCCOL strain 3 of Table 20 (OSBL), read-out: MIC.
Setting [8] is: ESCCOL strain 4 of Table 20 (OSBL), read-out: MIC.
Setting [9] is: ESCCOL strain 5 of Table 20 (WT), read-out: MIC.
[10] abbreviates: KLEPNEP strain 7 of Table 20 (ESBL), read-out: MIC.
Where [11] appears, read: KLEPNEP strain 8 of Table 20 (OSBL), read-out: MIC.
Where [12] appears, read: KLEPNEP strain 9 of Table 20 (OSBL), read-out: MIC.
[13] abbreviates: KLEPNEP strain 10 of Table 20 (WT), read-out: MIC.

In the case of `CO/N=C(\C(=O)N[C@@H]1C(=O)N2C(C(=O)O)=C(COC(C)=O)CS[C@H]12)c1csc(N)n1` [CTX, cefotaxime], the MIC in the assay on E. coli (ESCCOL) strains (ESCCOL strain 1 of Table 20 (ESBL), read-out: MIC) is 32 µg/mL (≈ 70.3 µM); in the assay with E. coli (ESCCOL) strains (setting [6]), > 64 µg/mL; in the assay on E. coli (ESCCOL) strains (setting [7]), ≤ 0.25 µg/mL; with E. coli (ESCCOL) strains (setting [8]), ≤ 0.25 µg/mL; in the assay with E. coli (ESCCOL) strains (setting [9]), ≤ 0.25 µg/mL; in assay [1] (KLEPNEP strain 6 of Table 20 (ESBL), read-out: MIC) it was > 64 µg/mL. The MIC in assay [1] (setting [10]) was > 64 µg/mL; in [1] (setting [11]) it was ≤ 0.25 µg/mL; in assay [1] (setting [12]), ≤ 0.25 µg/mL; in [1] (setting [13]), 0.5 µg/mL (≈ 1.1 µM).

As to `CC(C)(O/N=C(\C(=O)N[C@@H]1C(=O)N2C(C(=O)[O-])=C(C[n+]3ccccc3)CS[C@H]12)c1csc(N)n1)C(=O)O` [CAZ, ceftazidime], the MIC in the assay with E. coli (ESCCOL) strains is > 128 µg/mL; with E. coli (ESCCOL) strains (setting [6]), 16 µg/mL (≈ 29.3 µM); in the assay with E. coli (ESCCOL) strains (setting [7]) it was ≤ 0.25 µg/mL; in the assay with E. coli (ESCCOL) strains (setting [8]), ≤ 0.25 µg/mL; in the assay on E. coli (ESCCOL) strains (setting [9]) it was ≤ 0.25 µg/mL; in [1] it was > 128 µg/mL. Moreover, the MIC is 8 µg/mL (≈ 14.6 µM) in [1] (setting [10]), ≤ 0.25 µg/mL in assay [1] (setting [11]), ≤ 0.25 µg/mL in assay [1] (setting [12]) and ≤ 0.25 µg/mL in assay [1] (setting [13]).

In the case of `O=C(Cc1cccs1)N[C@@H]1C(=O)N2C(C(=O)O)=C(/C=C/c3ccc([N+](=O)[O-])cc3[N+](=O)[O-])CS[C@H]12` [NCF, 3-[2,4-dinitrostyryl]-7-(2-thienylacetamido]3-cephem-4-carobxylic acid], the “NCF activity (maximum nitrocefin hydrolysis rate within 10 hrs)” value (“NCF activity” for short) amounted to 1.9 in the assay with E. coli strains [2] (E. coli sample 1, intracellular beta-lactamase +); 2.1 with E. coli strains [2] (E. coli sample 2, intracellular beta-lactamase +); 2.3 with E. coli strains [2] (E. coli sample 3, intracellular beta-lactamase +); 1.9 in the assay with E. coli strains [2] (E. coli sample 4, intracellular beta-lactamase +); 8.2 in the assay on E. coli strains [2] (E. coli sample 5, intracellular beta-lactamase +); 7.2 in the assay on E. coli strains [2] (E. coli sample 6, intracellular beta-lactamase +). The “NCF activity” value in the assay with E. coli strains [2] (E. coli sample 7, intracellular beta-lactamase +) came to 6.8; in the assay on E. coli strains [2] (E. coli sample 8, intracellular beta-lactamase −) it was 1.7; in [3] (Klebsiella pneumoniae sample 9, intracellular beta-lactamase +) it was 1.3; in [3] (Klebsiella pneumoniae sample 10, intracellular beta-lactamase +) it was 3.3; in [3] (Klebsiella pneumoniae sample 11, intracellular beta-lactamase +) it was 3.9; in assay [3] (Klebsiella pneumoniae sample 12, intracellular beta-lactamase +) it was 2.6. For the same compound, the “NCF activity” value is given as 6.7 in assay [3] (Klebsiella pneumoniae sample 13, intracellular beta-lactamase +); 7.5 in [3] (Klebsiella pneumoniae sample 14, intracellular beta-lactamase +); 9.1 in assay [3] (Klebsiella pneumoniae sample 15, intracellular beta-lactamase +); 1.2 in [3] (Klebsiella pneumoniae sample 16, intracellular beta-lactamase −).

Turning to `CO[C@@]1(NC(=O)Cc2cccs2)C(=O)N2C(C(=O)O)=C(COC(N)=O)CS[C@@H]21` [Cefoxitin], the Cefoxitin MIC with E. coli strains [4] (E. coli strain 1 of Table 18 (WT)) is ≤ 4 µg/mL; in the assay on E. coli strains [4] (E. coli strain 2 of Table 18 (OSBL, C-plasmid)), > 32 µg/mL; in the assay with E. coli strains [4] (E. coli strain 3 of Table 18 (OSBL, C-chromo)) it was > 32 µg/mL; in the assay with E. coli strains [4] (E. coli strain 4 of Table 18 (OSBL)), 32 µg/mL; in the assay on E. coli strains [4] (E. coli strain 5 of Table 18 (ESBL, C-plasmid)), > 32 µg/mL; in the assay on E. coli strains [4] (E. coli strain 6 of Table 18 (ESBL, C-chromo)), “=32”. Besides, the “Cefoxitin MIC” value in the assay with E. coli strains [4] (E. coli strain 7 of Table 18 (ESBL)) is “=8”; in the assay on E. coli strains [4] (E. coli strain 8 of Table 18 (C-chromo)) it was > 32 µg/mL; in the assay with E. coli strains [4] (E. coli strain 9 of Table 18 (Carbapenemase)), > 32 µg/mL; with E. coli strains [4] (E. coli strain 10 of Table 18 (C-plasmid)) it was > 32 µg/mL; in the assay on E. coli strains [4] (E. coli strain 11 of Table 18 (OSBL, C-plasmid)), > 32 µg/mL.

Take `O=C(O)[C@H]1/C(=C/CO)O[C@@H]2CC(=O)N21` [clavulanic acid]: in the assay on ESBLs, the “inhibition of ESBLs” value is “inhibits”. The “inhibition of OSBLs” value in assay [5] is listed as “inhibits”.

`Cc1onc(-c2ccccc2Cl)c1C(=O)N[C@@H]1C(=O)N2[C@@H]1SC(C)(C)[C@@H]2C(=O)O` [cloxacillin]: the “inhibition of class A beta-lactamases” value in the assay on class A beta-lactamases is given as “inhibits”. In addition, the “inhibition of class C beta-lactamases” value with class C beta-lactamases is “inhibits”.

As usually defined, the MIC is the smallest concentration in the dilution series that meets the test's criterion for growth inhibition.
